In patent EP3928779A1 (Chugai Seiyaku Kabushiki Kaisha, priority 2014, dated 2016):

Test system: rat small-intestinal brush border membrane vesicles
Assay: Inhibitory effect on 33PO4 uptake into rat small-intestinal brush border membrane vesicles (rapid filtration method)
Type: biochemical
Settings: 33PO4 uptake into rat small-intestinal BBMVs; test compound 1 µM; reacted for 60 seconds
Protocol: Brush border membrane vesicles (BBMVs) were prepared using the upper region of the small intestine of each Wistar female rat (4-5 weeks old). […] The ^33PO4 transport activity of the small-intestinal BBMVs was determined by the rapid filtration method. […] Then, ice-cold buffer C (110 mM NaCl, 1 mM KH2PO4, and 10 mM HEPES (pH 7.5)) was added to each reaction mixture, which was immediately suctionfiltered through a Millipore filter. The filter was washed with buffer C, and each sample was then dissolved in a liquid scintillator. The amount of ^33PO4 uptake into BBMVs was measured using a liquid scintillation counter. […]

| SMILES | Rate of uptake inhibition (%) (1 µM) |
| --- | --- |
| C[C@]12CCCN1N(Cc1cccc(F)c1F)C(=O)C(C(=O)Nc1ccc(C(F)(F)F)cc1-c1ccc(C(F)(F)F)nc1)=C2O [Example 90] | 91 |
| C[C@]12CCCN1N(Cc1cccc(F)c1F)C(=O)C(C(=O)Nc1ccc(C(F)(F)F)cc1-c1cncc(C(F)(F)F)c1)=C2O [Example 91] | 87 |
| COCCOc1cc(NC(=O)C2=C(O)[C@@]3(C)CCCN3N(Cc3cccc(F)c3F)C2=O)c(-c2cccc(OC)c2OC)cc1C(F)(F)F [Example 92] | 81 |
| COc1cccc(-c2cc(C(F)(F)F)ccc2NC(=O)C2=C(O)[C@@]3(C)CCCN3N(Cc3cccc(F)c3F)C2=O)n1 [Example 93] | 56 |
| C[C@]12CCCN1N(Cc1cccc(F)c1F)C(=O)C(C(=O)Nc1ccc(C(F)(F)F)cc1-c1cnc(C#N)c([N+](=O)[O-])c1)=C2O [Example 99, (4aR)-N-[2-(6-Cyano-5-nitropyridin-3-yl)-4-(trifluoromethyl)phenyl]-1-[(2,3-difluorophenyl)methyl]-4-hydroxy-4a-methyl-2-oxo-6,7-dihydro-5H-pyrrolo[1,2-b]pyridazine-3-carboxamide] | 82 |
| C[C@]12CCCN1N(Cc1cccc(F)c1F)C(=O)C(C(=O)Nc1ccc(C(F)(F)F)cc1-c1cc(C#N)ncn1)=C2O [Example 100] | 69 |
| Cc1cc(-c2cc(C(F)(F)F)ccc2NC(=O)C2=C(O)[C@@]3(C)CCCN3N(Cc3cccc(F)c3F)C2=O)cnc1C#N [Example 101] | 57 |
| C[C@]12CCCN1N(Cc1ccc(OCCN3CCOCC3)c(F)c1F)C(=O)C(C(=O)Nc1ccc(Cl)cc1-c1ccc(C(F)(F)F)nc1)=C2O [Example 102] | 65 |
| CSc1ccc(-c2cc(C(F)(F)F)ccc2NC(=O)C2=C(O)[C@@]3(C)CCCN3N(Cc3ccc(OCCN4CCOCC4)c(F)c3F)C2=O)cn1 [Example 103] | 78 |
| CSc1ncc(-c2cc(C(F)(F)F)ccc2NC(=O)C2=C(O)[C@@]3(C)CCCN3N(Cc3ccc(OCCN4CCOCC4)c(F)c3F)C2=O)cn1 [Example 104] | 73 |
| CSc1ccc(-c2nc(C(F)(F)F)ccc2NC(=O)C2=C(O)[C@@]3(C)CCCN3N(Cc3cccc(F)c3F)C2=O)cn1 [Example 105] | 72 |
| C[C@]12CCCN1N(Cc1ccc(OCCN3CCOCC3)c(F)c1F)C(=O)C(C(=O)Nc1ccc(C(F)(F)F)nc1-c1cncc(C(F)(F)F)c1)=C2O [Example 106] | 79 |
| C[C@@]12CCCN1N(Cc1ccc(OCCN3CCOCC3)c(F)c1F)C(=O)C(C(=O)Nc1ccc(Cl)cc1-c1cc(C(F)(F)F)ncn1)=C2O.Cl [Example 107] | 54 |
| C[C@@]12CCCN1N(Cc1ccc(OCCN3CCOCC3)c(F)c1F)C(=O)C(C(=O)Nc1ccc(C(F)(F)F)cc1-c1cc(C(F)(F)F)ncn1)=C2O.Cl [Example 108] | 54 |
| Cc1ncc(-c2cc(C(F)(F)F)ccc2NC(=O)C2=C(O)[C@@]3(C)CCCN3N(Cc3cccc(F)c3F)C2=O)cc1C#N [Example 109, (4aR)-N-[2-(5-Cyano-6-methylpyridin-3-yl)-4-(trifluoromethyl)phenyl]-1-[(2,3-difluorophenyl)methyl]-4-hydroxy-4-methyl-2-oxo-6,7-dihydro-5H-pyrrolo[1.2-b]pyridazine-3-carboxamide] | 52 |
| CN(C)S(=O)(=O)N1CCC(c2cc(C(F)(F)F)ccc2NC(=O)C2=C(O)[C@@]3(C)CCCN3N(Cc3cccc(F)c3F)C2=O)CC1 [Example 110] | 57 |
| C[C@]12CCCN1N(Cc1cccc(F)c1F)C(=O)C(C(=O)Nc1ccc(C(F)(F)F)cc1-c1cnc(N3CC4(COC4)C3)c(C#N)c1)=C2O [Example 111, (4aR)-N-[2-[5-Cyano-6-(2-oxa-6-azaspiro[3.3]heptan-6-yl)pyridin-3-yl]-4-(trifluoromethyl)phenyl]-1-[(2,3-difluorophenyl)methyl]-4-hydroxy-4a-methyl-2-oxo-6.7-dihydro-5H-pyrrolo[1,2-b]pyridazine-3-carboxamide] | 56 |
| COC(=O)CN(C)c1ncc(-c2cc(C(F)(F)F)ccc2NC(=O)C2=C(O)[C@@]3(C)CCCN3N(Cc3cccc(F)c3F)C2=O)cc1C#N [Example 112, Methyl 2-[[5-[2-[[(4aR)-1-[(2,3-difluorophenyl)methyl]-4-hydroxy-4a-methyl-2-oxo-6,7-dihydro-5H-pyrrolo[1,2-b]pyridazine-3-carbonyl]aminol-5-(trifluoromethyl)phenyl]-3-cyanopyridin-2-yl-methylamino] acetate] | 43 |
| CSc1cc(-c2cc(C(F)(F)F)ccc2NC(=O)C2=C(O)[C@@]3(C)CCCN3N(Cc3cccc(F)c3F)C2=O)cnc1C#N [Example 113, (4aR)-N-[2-(6-Cyano-5-methylsulfanylpyridin-3-yl)-4-(trifluoromethyl)phenyl]-1-[(2,3-difluorophenyl)methyl]-4-hydroxy-4a-methyl-2-oxo-6,7-dihydro-5H-pyrrolo[1,2-b]pyridazine-3-carboxamide] | 84 |
| CSc1ccc(-c2cc(C(F)(F)F)ccc2NC(=O)C2=C(O)[C@@]3(C)CCCN3N(Cc3ccc(CCCCCCC(=O)O)c(F)c3F)C2=O)cn1 [Example 115, 7-[4-[[(4aR)-4-1-Hydroxy-4a-methyl-3-[[2-(6-methylsulfanylpyridin-3-yl)-4-(trifluoromethyl)phenyl]carbamoyl]-2-oxo-6,7-dihydro-5H-pyrrolo[1,2-b]pyridazin-1-yl]methyl]-2,3-difluorophenyl]heptanoate] | 85 |
| C[C@]12CCCN1N(Cc1ccc(CCCCCCC(=O)O)c(F)c1F)C(=O)C(C(=O)Nc1ccc(Cl)cc1-c1ccc(C(F)(F)F)nc1)=C2O [Example 116, 7-[4-[[(4aR)-3-[[4-Chloro-2-[6-(trifluoromethyl)pyridin-3-yl]phenyl]carbarnoyl]-4-hydroxy-4a-methyl-2-oxo-6,7-dihydro-5H-pyrrolo[1,2-b]pyridazin-1-yl]methyl]-2,3-difluorophenyl]heptanoate] | 72 |
| CSc1ccc(-c2cc(C(F)(F)F)ccc2NC(=O)C2=C(O)[C@@]3(C)CCCN3N(Cc3ccc(C#CCCCCC(=O)O)c(F)c3F)C2=O)cn1 [Example 117, 7-[4-[[(4aR)-4-Hydroxy-4a-methyl-3-[[2-(6-methylsulfanylpyridin-3-yl)-4-(trifluoromethyl)phenyl]carbamoyl]-2-oxo-6.7-dihydro-5H-pyrrolo[1.2-b]pyridazin-1-yl]methyl]-2,3-difluorophenyl]hept-6-ynoate] | 78 |
| CSc1ncc(-c2cc(C(F)(F)F)ccc2NC(=O)C2=C(O)[C@@]3(C)CCCN3N(Cc3ccc(C#CCCCCC(=O)O)c(F)c3F)C2=O)cn1 [Example 118] | 81 |
| C[C@]12CCCN1N(Cc1ccc(C#CCCCCC(=O)O)c(F)c1F)C(=O)C(C(=O)Nc1ccc(C(F)(F)F)cc1-c1cncc(C(F)(F)F)c1)=C2O [Example 119, 7-[4-[[(4aR)-4-Hydroxy-4a-methyl-2-oxo-3-[[4-(trifluoromethyl)-2-[5-(trifluoromethyl)pyridin-3-yl]phenyl]carbamoyl]-6.7-dihydro-5H-pyrrolo[1,2-b]pyridazin-1-yl]methyl]-2.3-difluorophenyl]hept-6-ynoate] | 71 |
| CSc1ccc(-c2cc(C(F)(F)F)ccc2NC(=O)C2=C(O)[C@@]3(C)CCCN3N(Cc3ccc(OCCCCOC[C@H](O)CO)c(F)c3F)C2=O)cn1 [Example 120, (4aR)-1-[[4-[4-[(2R)-2,3-Dihydroxypropoxy]butoxy]-2,3-difluorophenyl]methyl]-4-hydroxy-4a-methyl-N-[2-(6-methylsulfanylpyridin-3-yl)-4-(trifluoromethyl)phenyl]-2-oxo-6,7-dihydro-5H-pyrrolo[1,2-b]pyridazine-3-carboxamide] | 66 |
| C[C@]12CCCN1N(Cc1ccc(OCCCCOC[C@H](O)CO)c(F)c1F)C(=O)C(C(=O)Nc1ccc(Cl)cc1-c1ccc(C(F)(F)F)nc1)=C2O [Example 121, (4aR)-N-[4-Chloro-2-[6-(trifluoromethyl)pyridin-3-yl]phenyl]-1-[[4-[4-[(2R)-2,3-dihydroxypropoxy]butoxy]-2,3-difluorophenyl]methyl]-4-hydroxy-4a-methyl-2-oxo-6,7-dihydro-5H-pyrrolo[1,2-b]pyridazine-3-carboxamide] | 72 |
| C[C@]12CCCN1N(Cc1cccc(F)c1F)C(=O)C(C(=O)Nc1ccc(Br)cc1-c1ccc(Cl)nc1)=C2O [Example 122, (4aR)-N-[4-Bromo-2-(6-chloropyridin-3-yl)phenyl]-1-[(2,3-difluorophenyl)methyl]-4-hydroxy-4a-methyl-2-oxo-6,7-dihydro-5H-pyrrolo[1,2-b]pyridazine-3-carboxamide] | 82 |
| COc1cccc(-c2cc(C(F)(F)F)ccc2NC(=O)C2=C(O)[C@@]3(C)CCCN3N(Cc3ccc(C#CCOCCCCO)c(F)c3F)C2=O)c1OC [Example 123, (4aR)-1-[[2,3-Difluoro-4-[3-(4-hydroxybutoxy)prop-1-ynil]phenyl]methyl)-N-[2-(2.3-dimethoxyphenyl)-4-(trifluoromethyl)phenyl]-4-hydroxy-4a-methyl-2-oxo-6,7-dihydro-5H-pyrrolo[1,2-b]pyridazine-3-carboxamide] | 87 |
| C[C@]12CCCN1N(Cc1c(F)cc(C#CCCCCCOC[C@H](O)[C@@H](O)CO)cc1F)C(=O)C(C(=O)Nc1ccc(C(F)(F)F)cc1-c1ccc(C(F)(F)F)nc1)=C2O [Example 124] | 81 |
